Source: ChEMBL document CHEMBL4507327 (2021)

How the values were obtained:
[1] = molecular target: Casein kinase I isoform gamma-1 (Homo sapiens, UniProt Q9HCP0); experiment: CK1gamma1(C1G1LGI1) Takeda global kinase panel
[2] = molecular target: Adenosine receptor A1 (Homo sapiens) (UniProt P30542); settings: Compound concentration 10.0 uM
[3] = molecular target: B2 bradykinin receptor (Homo sapiens) (UniProt P30411); settings: Compound concentration 10.0 uM
[4] = molecular target: Insulin receptor-related protein (Homo sapiens, UniProt P14616); experiment: IRR(INSSLGF1) Takeda global kinase panel
[5] = molecular target: Fibroblast growth factor receptor 4 (Homo sapiens, UniProt P22455); experiment: FGFR4(FGF4LGF1) Takeda global kinase panel
[6] = molecular target: Adenosine receptor A2a (Homo sapiens) (UniProt P29274); settings: Compound concentration 10.0 uM
[7] = molecular target: G protein-coupled receptor kinase 3 (Homo sapiens, UniProt P35626); experiment: BARK2 [GRK3(ADR2LGG5)] Takeda global kinase panel
[8] = molecular target: Melatonin receptor type 1A (Homo sapiens) (UniProt P48039); experiment: Inhibition of Melatonin MT1 at 10 µM in the Eurofins-Panlabs radioligand binding assay (Eurofins_assay_251600); set-up: ligand concentration 0.05 nM; settings: Compound concentration 10.0 uM
[9] = molecular target: Histamine H3 receptor (Homo sapiens) (UniProt Q9Y5N1); settings: Compound concentration 10.0 uM
Homo sapiens = organism: Homo sapiens; settings: Compound concentration 10.0 uM
[10] = molecular target: Substance-P receptor (Homo sapiens) (UniProt P25103); experiment: Inhibition of Tachykinin NK1 at 10 µM in the Eurofins-Panlabs radioligand binding assay (Eurofins_assay_255520); set-up: ligand concentration 0.8 nM; settings: Compound concentration 10.0 uM
[11] = molecular target: Homeodomain-interacting protein kinase 1 (Homo sapiens, UniProt Q86Z02); experiment: HIPK1(HIP1LGF1) Takeda global kinase panel
[12] = molecular target: Testis-specific serine/threonine-protein kinase 1 (Homo sapiens, UniProt Q9BXA7); experiment: TSSK1(TS1BLGP1) Takeda global kinase panel
[13] = molecular target: Myosin light chain kinase family member 4 (Homo sapiens, UniProt Q86YV6); experiment: SgK085(SG85LGY1) Takeda global kinase panel
[14] = molecular target: Tyrosine-protein kinase JAK3 (Homo sapiens, UniProt P52333); experiment: JAK3(JAK3LGRG) Takeda global kinase panel
[15] = molecular target: Casein kinase I isoform gamma-2 (Homo sapiens, UniProt P78368); experiment: CK1gamma2(C1G2LGI1) Takeda global kinase panel
[16] = molecular target: Serine/threonine-protein kinase/endoribonuclease IRE1 (Homo sapiens, UniProt O75460); experiment: IRE1(ERN1PHY1) Takeda global kinase panel
[17] = molecular target: GABA-A receptor; anion channel (Rattus norvegicus) (UniProt O09028+P15431+P18506+P18508+P19969+P20236+P23574+P23576+P28471+P28473+P30191+P62813+P63079+P63138+Q91ZM7+Q9ES14); settings: Compound concentration 10.0 uM
[18] = molecular target: High affinity nerve growth factor receptor (Homo sapiens, UniProt P04629); experiment: TRKA(NTR1LGN1) Takeda global kinase panel
[19] = molecular target: Epidermal growth factor receptor (Homo sapiens, UniProt P00533); experiment: Inhibition of Epidermal Growth Factor (EGF) at 10 µM in the Eurofins-Panlabs radioligand binding assay (Eurofins_assay_225510); settings: Compound concentration 10.0 uM
[20] = molecular target: Ribosomal protein S6 kinase alpha-6 (Homo sapiens, UniProt Q9UK32); experiment: RSK4(R6A6LGF1) Takeda global kinase panel
[21] = molecular target: Serine/threonine-protein kinase BRSK1 (Homo sapiens, UniProt Q8TDC3); experiment: BRSK1(BRS1LGA1) Takeda global kinase panel
[22] = molecular target: Tyrosine-protein kinase Blk (Homo sapiens, UniProt P51451); experiment: BLK(BLK1CGF1) Takeda global kinase panel
[23] = molecular target: Mitogen-activated protein kinase kinase kinase 5 (Homo sapiens, UniProt Q99683); experiment: ASK [MAP3K5(M3K5LGA1)] Takeda global kinase panel
[24] = molecular target: Neuropeptide Y receptor type 1 (Homo sapiens) (UniProt P25929); experiment: Inhibition of Neuropeptide Y Y1 at 10 µM in the Eurofins-Panlabs radioligand binding assay (Eurofins_assay_257010); settings: Compound concentration 10.0 uM
[25] = molecular target: Mitogen-activated protein kinase 9 (Homo sapiens, UniProt P45984); experiment: JNK2(MAP9LGF1) Takeda global kinase panel
[26] = molecular target: cGMP-dependent protein kinase 2 (Homo sapiens, UniProt Q13237); experiment: PKG2(PRG2LHY1) Takeda global kinase panel
[27] = molecular target: Cannabinoid receptor 1 (Homo sapiens) (UniProt P21554); experiment: Inhibition of Cannabinoid CB1 at compound concentration of 10.0 uM in the Eurofins-Panlabs radioligand binding assay (Eurofins_assay_217050); set-up: ligand concentration 2 nM; settings: Compound concentration 10.0 uM
LIM domain kinase 1 = LIM domain kinase 1 (Homo sapiens, UniProt P53667); experiment: LIMK1(LIM1LGY1) Takeda global kinase panel
[28] = molecular target: Casein kinase I isoform gamma-3 (Homo sapiens, UniProt Q9Y6M4); experiment: CK1gamma3(C1G3LGI5) Takeda global kinase panel
[29] = molecular target: L-type calcium channel, dihydropyridine site (Cav1.2 alpha-1C) (Homo sapiens, UniProt Q13936); experiment: Inhibition of Calcium Channel L-Type, Dihydropyridine at 10 µM in the Eurofins-Panlabs radioligand binding assay (Eurofins_assay_214600); set-up: ligand concentration 0.1 nM, non-specific ligand with concentration 1 µM Nitrendipine, incubation time 90 min, incubation temperature 25 °C; settings: Wistar, rat, cerebral cortices of rats, probe [3H] Nitrendipine; compound concentration 10 uM; target entry is the homologue from another species
[30] = molecular target: Tyrosine-protein kinase Tec (Homo sapiens, UniProt P42680); experiment: TEC(TEC1CGD1) Takeda global kinase panel
Aurora kinase B = Aurora kinase B (Homo sapiens, UniProt Q96GD4); experiment: AurB [Aur1(AURBPGE1)] Takeda global kinase panel
Ephrin type-A receptor 8 = Ephrin type-A receptor 8 (Homo sapiens, UniProt P29322); experiment: EphA8(EPA8LGF1) Takeda global kinase panel
[31] = molecular target: Mast/stem cell growth factor receptor Kit (Homo sapiens, UniProt P10721); experiment: Kit(KIT1MGC1) Takeda global kinase panel
[32] = molecular target: Tyrosine-protein kinase HCK (Homo sapiens, UniProt P08631); experiment: HCK(HCK1LGF1) Takeda global kinase panel
[33] = molecular target: Peripheral plasma membrane protein CASK (Homo sapiens, UniProt O14936); experiment: CASK(CASKLGY1) Takeda global kinase panel
[34] = molecular target: Cyclin-G-associated kinase (Homo sapiens, UniProt O14976); experiment: GAK(GAK1PGF1) Takeda global kinase panel
[35] = molecular target: Cytoplasmic tyrosine-protein kinase BMX (Homo sapiens, UniProt P51813); experiment: Etk [BMX(BMX1CGF1)] Takeda global kinase panel
[36] = molecular target: Serine/threonine-protein kinase Nek11 (Homo sapiens, UniProt Q8NG66); experiment: Nek11(NE11LGRI) Takeda global kinase panel
[37] = molecular target: Purinergic P2Y (Rattus norvegicus) (UniProt O35811+Q9EPX4+P49651+Q63371+P41232+O35881+Q6GUG4); experiment: Inhibition of Purinergic P2Y at compound concentration of 10.0 uM in the Eurofins-Panlabs radioligand binding assay (Eurofins_assay_268820); type: protein assay; set-up: ligand concentration 0.1 nM; settings: Compound concentration 10.0 uM

Tyrosine-protein kinase JAK3, sequence (P52333 whole entry, canonical isoform): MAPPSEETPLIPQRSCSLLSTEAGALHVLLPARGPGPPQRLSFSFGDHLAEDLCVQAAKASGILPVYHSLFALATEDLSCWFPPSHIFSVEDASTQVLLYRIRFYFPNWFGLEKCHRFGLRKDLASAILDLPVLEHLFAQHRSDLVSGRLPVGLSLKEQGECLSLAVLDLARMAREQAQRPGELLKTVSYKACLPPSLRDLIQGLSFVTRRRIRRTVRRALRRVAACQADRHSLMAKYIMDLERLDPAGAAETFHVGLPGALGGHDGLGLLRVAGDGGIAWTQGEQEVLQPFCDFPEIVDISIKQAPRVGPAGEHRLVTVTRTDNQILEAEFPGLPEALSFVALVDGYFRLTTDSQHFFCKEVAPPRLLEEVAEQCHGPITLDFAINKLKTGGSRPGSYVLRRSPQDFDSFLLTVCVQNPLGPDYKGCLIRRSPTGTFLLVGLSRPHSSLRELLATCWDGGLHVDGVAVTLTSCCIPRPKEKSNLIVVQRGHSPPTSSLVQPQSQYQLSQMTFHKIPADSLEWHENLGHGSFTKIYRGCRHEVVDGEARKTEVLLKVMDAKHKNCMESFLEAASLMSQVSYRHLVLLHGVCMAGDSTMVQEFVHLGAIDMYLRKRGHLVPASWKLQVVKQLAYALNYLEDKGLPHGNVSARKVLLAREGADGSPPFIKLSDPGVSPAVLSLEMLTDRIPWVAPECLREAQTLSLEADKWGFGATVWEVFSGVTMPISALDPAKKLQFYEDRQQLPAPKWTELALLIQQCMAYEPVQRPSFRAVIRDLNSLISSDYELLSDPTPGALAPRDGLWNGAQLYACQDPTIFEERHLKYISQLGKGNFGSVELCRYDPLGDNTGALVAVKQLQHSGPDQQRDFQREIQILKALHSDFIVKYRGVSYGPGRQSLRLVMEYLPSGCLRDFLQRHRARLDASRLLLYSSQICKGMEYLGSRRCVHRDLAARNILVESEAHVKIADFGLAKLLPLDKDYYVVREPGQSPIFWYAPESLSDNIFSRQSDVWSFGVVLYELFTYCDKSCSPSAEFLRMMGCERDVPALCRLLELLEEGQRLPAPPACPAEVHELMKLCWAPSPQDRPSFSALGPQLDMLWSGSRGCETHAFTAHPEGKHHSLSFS
Casein kinase I isoform gamma-2, sequence (P78368 whole entry, canonical isoform): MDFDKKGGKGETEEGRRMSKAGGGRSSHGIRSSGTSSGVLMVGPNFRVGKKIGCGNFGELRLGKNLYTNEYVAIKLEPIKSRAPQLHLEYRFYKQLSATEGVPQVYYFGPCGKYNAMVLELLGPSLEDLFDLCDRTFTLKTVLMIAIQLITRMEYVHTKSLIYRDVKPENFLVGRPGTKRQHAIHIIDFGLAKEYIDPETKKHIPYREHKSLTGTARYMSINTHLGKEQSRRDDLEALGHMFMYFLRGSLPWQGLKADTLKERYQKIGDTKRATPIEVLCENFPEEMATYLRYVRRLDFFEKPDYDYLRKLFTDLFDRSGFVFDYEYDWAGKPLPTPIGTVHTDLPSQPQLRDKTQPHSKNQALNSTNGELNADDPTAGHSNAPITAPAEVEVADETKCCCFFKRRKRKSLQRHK
Mitogen-activated protein kinase 9, sequence (P45984 whole entry): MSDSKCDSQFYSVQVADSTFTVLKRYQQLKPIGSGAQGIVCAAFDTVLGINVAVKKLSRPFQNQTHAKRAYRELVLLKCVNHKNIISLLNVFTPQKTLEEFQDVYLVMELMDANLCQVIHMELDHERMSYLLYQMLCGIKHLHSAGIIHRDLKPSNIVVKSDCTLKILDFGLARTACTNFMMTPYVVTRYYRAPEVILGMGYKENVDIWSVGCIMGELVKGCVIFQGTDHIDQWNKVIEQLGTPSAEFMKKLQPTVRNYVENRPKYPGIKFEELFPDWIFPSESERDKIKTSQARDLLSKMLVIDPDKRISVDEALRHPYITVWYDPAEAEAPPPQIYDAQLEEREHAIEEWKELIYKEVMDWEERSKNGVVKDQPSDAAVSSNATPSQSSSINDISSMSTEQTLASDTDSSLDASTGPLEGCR
Aurora kinase B, sequence (Q96GD4 whole entry): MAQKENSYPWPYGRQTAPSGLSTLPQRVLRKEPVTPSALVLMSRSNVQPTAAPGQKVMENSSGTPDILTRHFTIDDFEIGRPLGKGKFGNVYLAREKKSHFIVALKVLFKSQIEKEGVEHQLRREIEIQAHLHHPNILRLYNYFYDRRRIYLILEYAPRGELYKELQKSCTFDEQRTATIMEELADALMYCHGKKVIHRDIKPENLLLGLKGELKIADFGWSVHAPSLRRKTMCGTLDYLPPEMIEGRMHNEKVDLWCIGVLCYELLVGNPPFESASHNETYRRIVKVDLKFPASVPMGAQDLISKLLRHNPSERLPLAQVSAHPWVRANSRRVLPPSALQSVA
Homeodomain-interacting protein kinase 1, sequence (Q86Z02 whole entry): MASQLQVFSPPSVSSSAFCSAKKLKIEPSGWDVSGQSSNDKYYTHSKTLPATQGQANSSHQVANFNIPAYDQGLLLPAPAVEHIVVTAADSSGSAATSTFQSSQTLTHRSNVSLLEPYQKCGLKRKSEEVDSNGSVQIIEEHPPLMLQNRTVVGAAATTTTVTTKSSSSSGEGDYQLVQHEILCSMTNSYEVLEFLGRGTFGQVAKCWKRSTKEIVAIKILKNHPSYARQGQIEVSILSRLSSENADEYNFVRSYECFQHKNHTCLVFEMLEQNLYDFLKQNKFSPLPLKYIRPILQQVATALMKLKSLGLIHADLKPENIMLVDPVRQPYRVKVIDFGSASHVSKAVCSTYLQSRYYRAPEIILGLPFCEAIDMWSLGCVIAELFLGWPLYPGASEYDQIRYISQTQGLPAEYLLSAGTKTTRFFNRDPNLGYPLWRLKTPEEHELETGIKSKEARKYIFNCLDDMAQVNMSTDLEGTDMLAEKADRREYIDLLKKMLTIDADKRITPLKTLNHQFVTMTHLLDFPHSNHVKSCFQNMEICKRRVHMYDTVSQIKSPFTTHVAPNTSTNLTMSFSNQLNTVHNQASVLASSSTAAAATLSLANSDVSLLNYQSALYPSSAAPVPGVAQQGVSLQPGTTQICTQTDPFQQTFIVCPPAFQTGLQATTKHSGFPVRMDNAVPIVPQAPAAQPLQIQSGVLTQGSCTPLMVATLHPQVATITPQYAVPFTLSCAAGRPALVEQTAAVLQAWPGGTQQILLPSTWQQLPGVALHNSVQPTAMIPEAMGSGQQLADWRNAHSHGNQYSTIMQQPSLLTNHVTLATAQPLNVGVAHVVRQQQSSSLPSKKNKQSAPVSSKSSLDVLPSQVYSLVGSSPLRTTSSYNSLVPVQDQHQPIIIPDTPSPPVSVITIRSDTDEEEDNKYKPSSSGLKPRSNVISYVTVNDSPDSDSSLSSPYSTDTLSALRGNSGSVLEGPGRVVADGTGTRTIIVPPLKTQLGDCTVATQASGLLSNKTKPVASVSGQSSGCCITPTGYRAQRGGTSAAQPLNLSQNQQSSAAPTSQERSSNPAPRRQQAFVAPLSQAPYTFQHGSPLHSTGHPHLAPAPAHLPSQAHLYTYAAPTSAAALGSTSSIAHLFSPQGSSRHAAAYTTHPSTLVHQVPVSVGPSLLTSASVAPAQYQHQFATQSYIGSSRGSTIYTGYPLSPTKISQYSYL
Epidermal growth factor receptor, sequence (P00533 whole entry): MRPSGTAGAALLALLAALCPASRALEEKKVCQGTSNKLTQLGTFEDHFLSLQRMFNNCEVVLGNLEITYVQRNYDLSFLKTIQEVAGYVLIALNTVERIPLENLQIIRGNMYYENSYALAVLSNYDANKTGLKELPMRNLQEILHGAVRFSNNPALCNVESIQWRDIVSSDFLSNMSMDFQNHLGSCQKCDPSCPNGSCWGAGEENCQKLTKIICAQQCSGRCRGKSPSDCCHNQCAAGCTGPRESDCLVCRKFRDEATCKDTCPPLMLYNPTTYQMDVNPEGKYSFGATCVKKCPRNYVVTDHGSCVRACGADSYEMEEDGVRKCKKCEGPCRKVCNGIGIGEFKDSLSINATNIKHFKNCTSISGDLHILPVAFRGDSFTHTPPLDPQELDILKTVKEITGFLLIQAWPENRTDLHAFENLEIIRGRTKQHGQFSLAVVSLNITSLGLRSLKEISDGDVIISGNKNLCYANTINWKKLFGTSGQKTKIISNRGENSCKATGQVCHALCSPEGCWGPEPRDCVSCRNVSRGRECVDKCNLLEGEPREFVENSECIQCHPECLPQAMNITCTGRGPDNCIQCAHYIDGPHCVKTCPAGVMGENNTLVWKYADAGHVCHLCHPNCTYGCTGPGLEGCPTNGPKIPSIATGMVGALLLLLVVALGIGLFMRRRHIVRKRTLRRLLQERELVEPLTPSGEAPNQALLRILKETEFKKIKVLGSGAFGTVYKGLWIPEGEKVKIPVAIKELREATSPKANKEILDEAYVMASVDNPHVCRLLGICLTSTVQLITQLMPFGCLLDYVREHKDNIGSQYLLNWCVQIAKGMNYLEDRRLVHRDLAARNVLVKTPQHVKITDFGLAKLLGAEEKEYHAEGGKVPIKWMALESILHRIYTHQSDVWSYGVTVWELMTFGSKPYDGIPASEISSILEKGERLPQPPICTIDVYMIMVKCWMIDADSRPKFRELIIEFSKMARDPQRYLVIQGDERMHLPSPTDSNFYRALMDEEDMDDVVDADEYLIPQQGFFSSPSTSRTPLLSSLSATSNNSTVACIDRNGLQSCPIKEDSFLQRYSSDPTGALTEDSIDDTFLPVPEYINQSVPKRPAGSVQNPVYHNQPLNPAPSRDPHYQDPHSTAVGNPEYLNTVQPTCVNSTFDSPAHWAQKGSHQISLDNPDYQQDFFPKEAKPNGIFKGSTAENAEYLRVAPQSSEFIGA
Melatonin receptor type 1A (Homo sapiens), sequence (P48039 whole entry): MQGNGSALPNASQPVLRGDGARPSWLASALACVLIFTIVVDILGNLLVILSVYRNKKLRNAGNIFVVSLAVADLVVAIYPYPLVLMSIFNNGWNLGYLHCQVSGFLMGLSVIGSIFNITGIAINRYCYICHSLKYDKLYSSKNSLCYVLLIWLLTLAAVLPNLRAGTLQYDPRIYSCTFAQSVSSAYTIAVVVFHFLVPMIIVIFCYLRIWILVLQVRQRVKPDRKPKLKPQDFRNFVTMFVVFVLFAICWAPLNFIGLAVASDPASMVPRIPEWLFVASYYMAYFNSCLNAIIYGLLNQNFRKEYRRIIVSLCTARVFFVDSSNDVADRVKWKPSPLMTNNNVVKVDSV

CN1C(=O)[C@@H](N2CCc3cn(Cc4ccccc4)nc3C2=O)COc2ccccc21 [TP-030-1]
-18% (not active): inhibition at 90 min, 10 µM [29]
inactive: inhibition [2] 7% | inhibition [3] 4% | inhibition [6] 10% | inhibition [8] 45% | inhibition [9] 4% | inhibition (Homo sapiens) 21% | inhibition [10] 29% | inhibition [17] 8% | inhibition [19] -3% | inhibition [24] 4% | inhibition [27] 5% | inhibition [37] -5%
1 µM: IC50 [1] | IC50 [4] | IC50 [5] | IC50 [7] | IC50 [11] | IC50 [12] | IC50 [13] | IC50 [14] | IC50 [15] | IC50 [16] | IC50 [18] | IC50 [20] | IC50 [21] | IC50 [22] | IC50 [23] | IC50 [25] | IC50 [26] | IC50 (LIM domain kinase 1) | IC50 [28] | IC50 [30] | IC50 (Aurora kinase B) | IC50 (Ephrin type-A receptor 8) | IC50 [31] | IC50 [32] | IC50 [33] | IC50 [34] | IC50 [35] | IC50 [36]

CN1C(=O)[C@@H](N2CCc3cn(CC4CCS(=O)(=O)CC4)nc3C2=O)COc2ccccc21 [TP-030n]
inactive: inhibition [2] -2% | inhibition [3] -4% | inhibition [6] -8% | inhibition [8] 9% | inhibition [9] -5% | inhibition (Homo sapiens) 2% | inhibition [10] 14% | inhibition [17] 12% | inhibition [19] 4% | inhibition [24] -3% | inhibition [27] -5% | inhibition [37] 8%
1 µM: IC50 [1] | IC50 [4] | IC50 [5] | IC50 [7] | IC50 [11] | IC50 [12] | IC50 [13] | IC50 [14] | IC50 [15] | IC50 [16] | IC50 [18] | IC50 [20] | IC50 [21] | IC50 [22] | IC50 [23] | IC50 [25] | IC50 [26] | IC50 (LIM domain kinase 1) | IC50 [28] | IC50 [30] | IC50 (Aurora kinase B) | IC50 (Ephrin type-A receptor 8) | IC50 [31] | IC50 [32] | IC50 [33] | IC50 [34] | IC50 [35] | IC50 [36]
-6% (not active): inhibition at 90 min, 10 µM [29]
